# pIC50, pKi: −log10 of the molar value.
# Assays:
# ABA receptor = biological target: T1, ABA receptor (Homo sapiens, UniProt Q9NS86); experiment: Competition binding with [^3H]-ABA on human granulocytes
# T1 construct: endogenous in cells; host or cells: human granulocytes (intact cells)
# T1 sequence (Q9NS86 1-450): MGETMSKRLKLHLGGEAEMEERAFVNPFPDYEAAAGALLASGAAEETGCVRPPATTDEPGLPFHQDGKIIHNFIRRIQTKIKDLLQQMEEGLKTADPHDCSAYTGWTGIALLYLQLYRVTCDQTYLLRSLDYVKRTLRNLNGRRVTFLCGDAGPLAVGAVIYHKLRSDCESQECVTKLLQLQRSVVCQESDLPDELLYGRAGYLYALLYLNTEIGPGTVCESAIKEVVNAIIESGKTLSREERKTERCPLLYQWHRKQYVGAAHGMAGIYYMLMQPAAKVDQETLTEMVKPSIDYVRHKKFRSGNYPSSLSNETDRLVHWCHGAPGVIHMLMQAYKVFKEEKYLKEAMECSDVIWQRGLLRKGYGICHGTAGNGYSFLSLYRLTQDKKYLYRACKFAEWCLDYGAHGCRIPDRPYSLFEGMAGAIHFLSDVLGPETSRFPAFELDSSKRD
# Method: Human granulocytes (7 x 10^6 per point), after ON incubation in complete DMEM/F12, were incubated in triplicate at 25 °C for 60 min in 100 µl of HBSS spiked with glucose 10 mM in the presence either of an excess of unlabeled ABA (1 mM) (in order to determine the non-specific binding rate) or of increasing concentrations of compound prepared according to example 1 (from 0,01 nM up to 100 µM). To each compound, 10 nM of [^3H]-ABA (GE Healthcare) with specific activity of 98,000 cpm/pmole were added. At the end of incubation, the cells were centrifuged for 30 sec at […], the supernatant was removed and discarded, and the pellet was washed once wih an excess of HBSS in ice, and centrifuged for 30 sec at 17,000xg. The pellet was resuspended in 200 µl of de-ionized water and radioactivity of cells was determined after addition of scintillation cocktail in a β counter.
# Specific binding was computed as the difference between the total binding of [^3H]-ABA in the cells and the binding of [^3H]-ABA in the presence of an excess of unlabeled ABA (1 mM) (non-specific binding).
# The experiment was carried out five times in triplicate.
# [1] = system: Raw 264.7 (murine monocitic leukemia); experiment: Cytotoxicity, CellTiter 96 AQueous One Solution assay; format: cell-based; details: 24 hrs
smiles,measurement,setting,value
"CC(=C/C(=O)O)/C=C/C1(O)C(C)(C)CC(=O)C2OC21C (stereo not drawn) [Example 1, 2'α,3'α-dihydro-2'α,3'α-epoxyabscisic acid]",pKi,"ABA receptor; Cheng-Prusoff, [ABA] =10 nM, KD ABA = 11 nM, 95% confidence intervals 0.25 nM to 0.83 nM, read-out: inhibition constant Ki",9.34
same,pIC50,"ABA receptor; displaces 50 % of radioligand specific binding, 95 % confidence intervals 0.48 nM to 1.58 nM",9.06
same,number of cells,[1]; 1 nM,306321
same,vitality %,[1]; 1 nM,100%
same,number of cells,[1]; 10 nM,30555
same,vitality %,[1]; 10 nM,100%
same,number of cells,[1]; 1 µM,274987
same,vitality %,[1]; 1 µM,90%
same,number of cells,[1]; 100 µM,290264
same,vitality %,[1]; 100 µM,95%

# — patent EP2511272B1, “Synthetic analogues of abscisic acid with anti-inflammatory and insulin release stimulation effects on human cells” (Universita' degli Studi di Genova, priority 2011, dated 2012)
